The test system of experiment [1] is IL-6 mRNA. Nature of the experiment: IL-6 mRNA expression in chondrocytes by TaqMan assay. Type of experiment: cell-based. Particulars: human chondrocytes stimulated with IL-1β, n=4. As to the method:
(§1) Chondrocytes were derived by enzymatic digestion of human cartilage obtained from OA patients (n=14) undergoing knee joint replacement. Chondrocytes were stimulated with IL-1β (5 ng/ml) or treated with Actinomycin D (5 μg/ml) or NFκB inhibitor SC514 (75 μM) or JNK inhibitor (25 μM). Total RNA from grounded cartilage and from chondrocytes was purified using Qiagen RNeasy kit (Qiagen). Reverse transcription was performed using the Quantitect Reverse Transcription kit and the ZCCHC6 or IL-6 mRNA was quantified using TaqMan assays. SiRNA-mediated depletion of ZCCHC6 in human chondrocytes was used to study the effect on inflammatory cytokine expression using a cytokine array (Ray Biotech). Protein expression of IL-6 was studied using Western immunoblotting and quantified by ELISA in culture supernatants. Results were derived using Sigma Plot 12.3 package and p<0.05 was considered significant.

In experiment [2] the test system is ZCCHC6. Kind of experiment: ZCCHC6 expression in IL-1β-stimulated chondrocytes. Type of experiment: cell-based. The note with it: human chondrocytes stimulated with IL-1β, n=4. How it is done: as §1

Experimental findings from patent US20190201489A1, “COMPOSITIONS AND METHODS FOR PREVENTING BONE LOSS AND/OR STIMULATING BONE HEALING” (NORTHEAST OHIO MEDICAL UNIVERSITY, priority 2016, published 2019) are described below.

On to Interleukin-1β [IL-1β], for which the “increase in mRNA of IL-6” value in experiment [1] stood at 4956 fold. Besides, the “increase in expression of ZCCHC6” value in experiment [2] stood at 11.3 fold.
